Measured values published in patent publication US9549558B2, “Herbicidal azines” (BASF SE, priority 2012, dated 2017).

Legend:
Assay type in all cases: in vivo
[1] = system: AMARE (Amaranthus retroflexus); assay: greenhouse post-emergence herbicidal test
From the text: (§1) The culture containers used were plastic flowerpots containing loamy sand with approximately 3.0% of humus as the substrate. The seeds of the test plants were sown separately for each species.
(§2) For the post-emergence treatment, the test plants were first grown to a height of 3 to 15 cm, depending on the plant habit, and only then treated with the active ingredients which had been suspended or emulsified in water. For this purpose, the test plants were either sown directly and grown in the same containers, or they were first grown separately as seedlings and transplanted into the test containers a few days prior to treatment.
(§3) Depending on the species, the plants were kept at 10-25° C. or 20-35° C., respectively.
(§4) The test period extended over 2 to 4 weeks. During this time, the plants were tended, and their response to the individual treatments was evaluated.
(§5) Evaluation was carried out using a scale from 0 to 100. 100 means no emergence of the plants, or complete destruction of at least the aerial moieties, and 0 means no damage, or normal course of growth. A moderate herbicidal activity is given at values of at least 60, a good herbicidal activity is given at values of at least 70, and a very good herbicidal activity is given at values of at least 85.
(§6) The plants used in the greenhouse experiments were of the following species: […]

[2] = system: POLCO (Polygonum convolvulus); assay: greenhouse post-emergence herbicidal test
From the text: as §1, §2, §3, §4, §5, §6

[3] = system: ABUTH (Abutilon theophrasti); assay: greenhouse post-emergence herbicidal test
From the text: as §1, §2, §3, §4, §5, §6

[4] = system: CHEAL (Chenopodium album); assay: greenhouse post-emergence herbicidal test
From the text: as §1, §2, §3, §4, §5, §6

[5] = system: CAPBP (Capsella bursa-pastoris); assay: greenhouse pre-emergence herbicidal test; details: CAPBP
From the text: as §1
(§7) For the pre-emergence treatment, the active ingredients, which had been suspended or emulsified in water, were applied directly after sowing by means of finely distributing nozzles. The containers were irrigated gently to promote germination and growth and subsequently covered with transparent plastic hoods until the plants had rooted. This cover caused uniform germination of the test plants, unless this had been impaired by the active ingredients.
as §3, §4, §5, §6

VIOAR (Viola arvensis) = assay: greenhouse pre-emergence herbicidal test
From the text: as §1, §7, §3, §4, §5, §6

SETVI (Setaria viridis) = assay: greenhouse pre-emergence herbicidal test
From the text: as §1, §7, §3, §4, §5, §6

[6] = system: ECHCG (Echinocloa crus-galli); assay: greenhouse post-emergence herbicidal test
From the text: as §1, §2, §3, §4, §5, §6

STEME (Stellaria media) = assay: greenhouse pre-emergence herbicidal test
From the text: as §1, §7, §3, §4, §5, §6

[7] = system: ECHCG (Echinocloa crus-galli); assay: greenhouse pre-emergence herbicidal test; details: 125 g/ha
From the text: as §1, §7, §3, §4, §5, §6

Compound: CC(C)c1nc(N)nc(Nc2c(F)c(F)cc(F)c2F)n1 [Example 6]
- herbicidal activity ([1]; 0.031 kg/ha): very good (a very good herbicidal activity is given at values of at least 85)
- herbicidal activity ([2]; 0.031 kg/ha): good (a good herbicidal activity is given at values of at least 70)

Compound: CC(F)(F)c1nc(N)nc(Nc2c(F)c(F)cc(F)c2F)n1 [Example 8]
- herbicidal activity ([3]; 0.062 kg/ha): very good (a very good herbicidal activity is given at values of at least 85)
- herbicidal activity ([4]; 0.062 kg/ha): very good (a very good herbicidal activity is given at values of at least 85)

Compound: CC(F)c1nc(N)nc(Nc2c(F)cccc2F)n1 (stereo not shown) [Example 12]
- herbicidal activity ([5]; 0.125 kg/ha): very good (a very good herbicidal activity is given at values of at least 85)
- herbicidal activity (VIOAR (Viola arvensis); 0.125 kg/ha): very good (a very good herbicidal activity is given at values of at least 85)

Compound: CC(F)c1nc(N)nc(Nc2c(F)cc(F)cc2F)n1 (stereo not shown) [Example 15]
- herbicidal activity (SETVI (Setaria viridis); 0.0625 kg/ha): moderate (A moderate herbicidal activity is given at values of at least 60)

Compound: CC(F)c1nc(N)nc(Nc2c(F)c(F)cc(F)c2F)n1 (stereo not shown) [Example 17]
- herbicidal activity ([3]; 0.125 kg/ha): very good (a very good herbicidal activity is given at values of at least 85)
- herbicidal activity ([2]; 0.125 kg/ha): very good (a very good herbicidal activity is given at values of at least 85)

Compound: CC(C)(F)c1nc(N)nc(Nc2ccc(F)c(F)c2F)n1 [Example 26]
- herbicidal activity ([5]; 0.125 kg/ha): good (a good herbicidal activity is given at values of at least 70)
- herbicidal activity (VIOAR (Viola arvensis); 0.125 kg/ha): very good (a very good herbicidal activity is given at values of at least 85)

Compound: CC(C)(F)c1nc(N)nc(Nc2c(F)ccc(F)c2F)n1 [Example 27]
- herbicidal activity ([1]; 0.062 kg/ha): very good (a very good herbicidal activity is given at values of at least 85)
- herbicidal activity ([6]; 0.062 kg/ha): very good (a very good herbicidal activity is given at values of at least 85)

Compound: CC(C)(F)c1nc(N)nc(Nc2cc(F)c(F)c(F)c2)n1 [Example 29]
- herbicidal activity (VIOAR (Viola arvensis); 0.125 kg/ha): moderate (A moderate herbicidal activity is given at values of at least 60)

Compound: CC(C)(F)c1nc(N)nc(Nc2c(F)cccc2C#N)n1 [Example 38]
- herbicidal activity ([1]; 0.125 kg/ha): very good (a very good herbicidal activity is given at values of at least 85)
- herbicidal activity ([4]; 0.125 kg/ha): very good (a very good herbicidal activity is given at values of at least 85)

Compound: Cc1ccc(F)c(Nc2nc(N)nc(C(C)(C)F)n2)c1F [Example 40]
- herbicidal activity ([1]; 0.031 kg/ha): very good (a very good herbicidal activity is given at values of at least 85)
- herbicidal activity ([4]; 0.031 kg/ha): very good (a very good herbicidal activity is given at values of at least 85)

Compound: COc1ccc(F)c(F)c1Nc1nc(N)nc(C(C)(C)F)n1 [Example 61]
- herbicidal activity ([1]; 0.062 kg/ha): very good (a very good herbicidal activity is given at values of at least 85)
- herbicidal activity ([2]; 0.062 kg/ha): very good (a very good herbicidal activity is given at values of at least 85)

Compound: CCC(C)c1nc(N)nc(Nc2c(F)c(F)c(F)c(F)c2F)n1 (stereo not shown) [Example 62]
- herbicidal activity ([5]; 125 g/ha): very good (a very good herbicidal activity is given at values of at least 85)
- herbicidal activity (SETVI (Setaria viridis); 125 g/ha): very good (a very good herbicidal activity is given at values of at least 85)
- herbicidal activity (STEME (Stellaria media); 125 g/ha): very good (a very good herbicidal activity is given at values of at least 85)

Compound: CC(c1nc(N)nc(Nc2c(F)c(F)c(F)c(F)c2F)n1)C1CC1 (stereo not shown) [Example 63]
- herbicidal activity [7]: very good (a very good herbicidal activity is given at values of at least 85)
- herbicidal activity (SETVI (Setaria viridis); 125 g/ha): very good (a very good herbicidal activity is given at values of at least 85)
- herbicidal activity (STEME (Stellaria media); 125 g/ha): very good (a very good herbicidal activity is given at values of at least 85)

Compound: CC(C)(F)c1nc(N)nc(Nc2c(F)cc(C#N)cc2F)n1 [Example 71]
- herbicidal activity ([4]; 125 g/ha): very good (a very good herbicidal activity is given at values of at least 85)
- herbicidal activity ([2]; 125 g/ha): good (a good herbicidal activity is given at values of at least 70)

Compound: Nc1nc(CCC(F)(F)F)nc(Nc2c(F)c(F)c(F)c(F)c2F)n1 [Example 73]
- herbicidal activity ([5]; 250 g/ha): very good (a very good herbicidal activity is given at values of at least 85)
- herbicidal activity (SETVI (Setaria viridis); 250 g/ha): very good (a very good herbicidal activity is given at values of at least 85)
- herbicidal activity (STEME (Stellaria media); 250 g/ha): very good (a very good herbicidal activity is given at values of at least 85)

Compound: CC(C)(C)c1nc(N)nc(Nc2c(F)ccc(Cl)c2F)n1 [Example 81]
- herbicidal activity ([5]; 125 g/ha): very good (a very good herbicidal activity is given at values of at least 85)
- herbicidal activity (STEME (Stellaria media); 125 g/ha): very good (a very good herbicidal activity is given at values of at least 85)
- herbicidal activity (VIOAR (Viola arvensis); 125 g/ha): very good (a very good herbicidal activity is given at values of at least 85)

Compound: CC(C)(Cl)c1nc(N)nc(Nc2c(F)ccc(Cl)c2F)n1 [Example 108]
- herbicidal activity ([5]; 250 g/ha): very good (a very good herbicidal activity is given at values of at least 85)
- herbicidal activity (STEME (Stellaria media); 250 g/ha): very good (a very good herbicidal activity is given at values of at least 85)
- herbicidal activity (VIOAR (Viola arvensis); 250 g/ha): very good (a very good herbicidal activity is given at values of at least 85)

Compound: CC(C)(Cl)c1nc(N)nc(Nc2c(F)c(F)cc(F)c2F)n1 [Example 111]
- herbicidal activity ([5]; 125 g/ha): very good (a very good herbicidal activity is given at values of at least 85)
- herbicidal activity [7]: very good (a very good herbicidal activity is given at values of at least 85)
- herbicidal activity (SETVI (Setaria viridis); 125 g/ha): very good (a very good herbicidal activity is given at values of at least 85)

Compound: Nc1nc(Nc2c(F)ccc(F)c2F)nc(C(F)(F)F)n1 [Example 127]
- herbicidal activity ([1]; 1000 g/ha): very good (a very good herbicidal activity is given at values of at least 85)
- herbicidal activity ([4]; 1000 g/ha): very good (a very good herbicidal activity is given at values of at least 85)
- herbicidal activity ([2]; 1000 g/ha): good (a good herbicidal activity is given at values of at least 70)

Compound: Nc1nc(Nc2c(F)c(F)cc(F)c2F)nc(C(F)(F)F)n1 [Example 132]
- herbicidal activity ([1]; 500 g/ha): very good (a very good herbicidal activity is given at values of at least 85)
- herbicidal activity ([4]; 500 g/ha): very good (a very good herbicidal activity is given at values of at least 85)
- herbicidal activity ([2]; 500 g/ha): very good (a very good herbicidal activity is given at values of at least 85)

Compound: CC(F)(F)c1nc(N)nc(Nc2c(F)cc(F)cc2F)n1 [Example 138]
- herbicidal activity ([5]; 125 g/ha): very good (a very good herbicidal activity is given at values of at least 85)
- herbicidal activity (STEME (Stellaria media); 125 g/ha): very good (a very good herbicidal activity is given at values of at least 85)
- herbicidal activity (VIOAR (Viola arvensis); 125 g/ha): very good (a very good herbicidal activity is given at values of at least 85)

Compound: Nc1nc(Nc2c(F)cc(F)cc2F)nc(C2CC2)n1 [Example 143]
- herbicidal activity ([1]; 500 g/ha): very good (a very good herbicidal activity is given at values of at least 85)
- herbicidal activity ([4]; 500 g/ha): very good (a very good herbicidal activity is given at values of at least 85)
- herbicidal activity ([2]; 500 g/ha): good (a good herbicidal activity is given at values of at least 70)

Compound: Nc1nc(Nc2c(F)c(F)c(F)c(F)c2F)nc(C(F)(F)Cl)n1 [Example 146]
- herbicidal activity ([1]; 500 g/ha): very good (a very good herbicidal activity is given at values of at least 85)
- herbicidal activity ([4]; 500 g/ha): very good (a very good herbicidal activity is given at values of at least 85)
- herbicidal activity ([2]; 500 g/ha): very good (a very good herbicidal activity is given at values of at least 85)

Compound: CC(C)(F)c1nc(N)nc(Nc2ccc(C(=O)O)cc2F)n1 [Example 173]
- herbicidal activity ([6]; 500 g/ha): good (a good herbicidal activity is given at values of at least 70)

Compound: CCC(C)(F)c1nc(NC(C)=O)nc(Nc2c(F)c(F)cc(F)c2F)n1 (stereo not shown) [Example 207]
- herbicidal activity ([5]; 125 g/ha): very good (a very good herbicidal activity is given at values of at least 85)
- herbicidal activity (SETVI (Setaria viridis); 125 g/ha): very good (a very good herbicidal activity is given at values of at least 85)
- herbicidal activity (STEME (Stellaria media); 125 g/ha): very good (a very good herbicidal activity is given at values of at least 85)

Compound: Nc1nc(Nc2c(F)c(F)c(Br)c(F)c2F)nc(C2CCCCC2)n1 [Example 209]
- herbicidal activity ([5]; 250 g/ha): good (a good herbicidal activity is given at values of at least 70)
- herbicidal activity (STEME (Stellaria media); 250 g/ha): very good (a very good herbicidal activity is given at values of at least 85)
- herbicidal activity (VIOAR (Viola arvensis); 250 g/ha): good (a good herbicidal activity is given at values of at least 70)

Compound: Nc1nc(Nc2c(F)c(F)c(Br)c(F)c2F)nc(C2CCCC2)n1 [Example 210]
- herbicidal activity ([5]; 250 g/ha): very good (a very good herbicidal activity is given at values of at least 85)
- herbicidal activity (STEME (Stellaria media); 250 g/ha): very good (a very good herbicidal activity is given at values of at least 85)
- herbicidal activity (VIOAR (Viola arvensis); 250 g/ha): very good (a very good herbicidal activity is given at values of at least 85)

Compound: Nc1nc(C2CC2)nc(N(C(=O)C2CC2)c2c(F)c(F)cc(F)c2F)n1 [Example 285]
- herbicidal activity ([1]; 62 g/ha): very good (a very good herbicidal activity is given at values of at least 85)
- herbicidal activity ([4]; 62 g/ha): good (a good herbicidal activity is given at values of at least 70)
